Assay results published in US20150231209A1, “STIMULATION OF OVARIAN FOLLICLE DEVELOPMENT AND OOCYTE MATURATION” (THE BOARD OF TRUSTEES OF THE LELAND STANFORD JUNIOR …, priority 2012, published 2015).

Key:
ovarian grafts = test: Ovarian grafting under kidney capsule of FSH-treated hosts: graft weights and follicle counting; assay type: in vivo, mice
Procedure: FIG. 3. Additive effects of Hippo signaling disruption and Akt stimulation promoted secondary follicle growth. A) Secondary follicles are responsive to IVA treatment. Secondary follicles (115 um in diameter) were isolated from mice at day 10 of age and cultured in vitro with the standard IVA protocol (first day with bPV(hopic) at 3 mM and 740YP at 15 ug/ml, followed by one more day with 740YP alone), followed by treatment with daily FSH (100 ng/ml) for two more days (IVA+FSH). The control groups were either treatment with media alone for four days or treated with the IVA reagent for two days followed by media alone (IVA alone). B) Ovarian fragmentation and IVA treatment led to additive effects on ovarian weight gain and secondary follicle growth. Paired ovaries from mice at day 10 of age were fragmented into three pieces. Fragments from one side were treated with the IVA protocol (bpV(hopic) at 30 uM and 740YP at 150 ng/ml for one day, followed by one more day with 740YP only) whereas fragments from the contralateral side were incubated in media alone. Ovarian fragments were then allo-transplanted into kidney capsules of adult ovariectomized mice with hosts injected with FSH (daily at 1 IU/animal). Five 5 days later, ovarian grafts were retrieved, fixed and weighted. Left panel: graft weights; right panel: Follicle dynamics of grafted ovarian fragments. Percentages of follicles at different stages were determined based on serial sections of grafts. C, Follicle dynamics before and after grafting of intact and fragmented murine ovaries with or without treatment with Akt stimulators. Left: total follicle numbers, Right: follicle dynamics. n=4. Same letter symbols indicate significant differences (p<0.05). D-F. Vitrified human cortical strips were thawed and fragmented into cubes before treatment with Akt stimulators for 2 days followed by grafting into immune-deficient mice for 4 weeks. D. Cortical strips before grafting. Arrow: a secondary follicle, arrowheads: primordial/primary follicles. Scale bar, 100 μm. E. A kidney graft in situ (left) and after isolation (right), showing an antral follicle. F. Histology of two large antral follicles with the side view of one showing an oocyte at the germinal vesicle stage (arrow). Scale bar, 1 mm. Mean±SEM; * p<0.05.
(§1) FIG. 7. Pre-treatment with verteporfin and CCN2 antibodies suppressed fragmentation-induced ovarian growth. A, Pretreatment with verteporfin suppressed fragmentation-induced increases in CCN2, but not AMH, transcript levels. Juvenile mice were injected i.p. with verteporfin for 3 h before retrieving ovaries for fragmentation. At 4 h after incubation, transcript levels for CCN2 and AMH were determined by real-time RT-PCR. n=6-12. […] Ovaries from juvenile mice pre-injected with verteporf in for 3 h were fragmented and incubated for 1 h before grafting into FSH-treated hosts for 5 days followed by determination of graft weights. Numbers in parentheses are number of samples used. C, Follicle dynamics of intact and fragmented ovarian grafts from animals with or without verteporf in (VP) pretreatment. n=3-5. D, Incubation of fragmented ovaries with CCN2 antibodies suppressed ovarian weight increases. Paired ovaries were fragmented into 3 pieces followed by incubation with CCN2 antibodies or non-immune-IgG for 18 h before grafting for 5 days. Mean±SEM; *p<0.05.
Left upper panel: Paired ovaries from day 10 mice were treated with or without JASP (10 μM) for 30 min. before analyses of F- and G-actin content. Left lower panel: Real-time RT-PCR analyses of CCN2 transcript levels after 30 min. exposure to JASP. Right panel: Immunoblotting analyses of CCN2 protein levels after 30 min. treatment with JASP. Upper panel: Immunoblotting analyses. Lower panel: quantitative analyses of densitometric scanning data. Numbers in parentheses are number of samples used. * p<0.05. […]

ovaries from day 10 mice = test: Ovarian explant cultures: ovarian weight and follicle dynamics; assay type: cell-based; settings: for ovarian explant weights: explants from day 10 mice cultured with CCN growth factors for 4 days
Procedure: FIG. 2. […] A, Ovarian fragmentation increased F-actin levels. Paired ovaries from day 10 mice were cut into 3 pieces or kept intact before immunoblotting analyses of F- and G-actin levels (upper panel). Lower panel: F- to G-actin ratios. N=6-11. B, Ovarian fragmentation decreased phospho-YAP(pYAP) levels and pYAP to total YAP ratios. Paired ovaries with or without cutting were incubated for 1 h, followed by immunoblotting. Left panel: representative immunoblots; Right panel: ratios of different antigens. n=8 pairs. C, Ovarian fragmentation increased expression of CCN growth factors and BIRC apoptosis inhibitors. Paired ovaries with or without cutting were incubated for 1 h […] before analyses of transcript levels normalized by GAPDH. Intact ovaries: solid lines; pooled 3 pieces: dashed lines. n=10-15. D, Ovarian fragmentation increased CCN2 proteins. Paired ovaries with or without cutting were incubated for 3-5 h before immunoblotting. Upper panel: representative blots; lower panel: quantitative analyses. N=3-5. E, Treatment with CCN2, 3, 5, and 6 increased ovarian explant weights. Explants from day 10 mice were cultured with different CCN growth factors for 4 days before weighing. n=5-6. Mean±SEM; * p<0.05. IN=Intact; PI=Pieces.
FIG. 6. Increased expression of CCN growth factors and BIRO inhibitors after ovarian fragmentation and the ability of CCN growth factors to promote follicle development. A, Ovarian fragmentation without subsequent grafting increased the expression of key CCN growth factors (CCN2, 3, 5, and 6) and apoptosis inhibitors (BIRC1 and 7). Paired ovaries from day 10 mice with or without cutting into 3 pieces were incubated for up to 7 h before analyses of transcript levels for different genes. Intact ovaries: solid lines; three pieces: dashed lines. n=10-15. B, Increases in CCN2 expression in somatic cells of fragmented ovaries. Paired ovaries from day 10 mice with or without cutting into 3 pieces were cultured for 1 h and then transplanted under kidney capsules. At 3 h after transplantation, ovaries were dissected followed by isolation of oocytes and somatic cells as previously described (2). CCN2 and GAPDH mRNA levels were measured by real-time RT-PCR (n=4). *, P<0.05 vs intact. C. Treatment with CCN growth factors promoted preantral follicle development in ovarian explants. Following explant cultures with different CCN growth factors, follicle dynamics were determined by counting the percentages of follicles at different developmental stages. Mean±SEM; *p<0.05, n=5.
Ovaries from day 10 mice were placed on culture plate insert (Millipore) and cultured in DMEM/F12 containing 0.1% BSA, 0.1% Albumax II, insulin-transferrin-selenium, 0.05 mg/ml L-ascorbic acid and penicillin-streptomycin for 4 days with medium changes after 2 days of culture as described. At the end of culture, ovarian weight was measured and some of the ovaries were embedded for histological analyses of follicle dynamics.
We tested the ability of S1P to promote follicle growth. […] We hypothesized that S1P acts through its receptors in granulosa cells to trigger actin polymerization, disrupt Hippo signaling and promote follicle growth.

oocytes = settings: intrabursal treatment; cited from earlier work
PTEN = PTEN (Homo sapiens, UniProt P60484); settings: read-out: IC50, inhibits PTEN; cited from earlier work
CCN2 transcripts = test: Real-time RT-PCR of CCN2 transcripts after verteporfin pretreatment and ovarian fragmentation; assay type: in vivo; settings: day 10 mice injected i.p. for 3 h before fragmentation; 4 h after incubation
Procedure: as §1
(§2) Roles of Hippo signaling and CCN2 in fragmentationinduced follicle growth: YAP has no transcriptional activity and its actions are dependent on downstream transcriptional factors. […]

AMH transcripts = test: Real-time RT-PCR of AMH transcripts after verteporfin pretreatment and ovarian fragmentation; assay type: in vivo; settings: day 10 mice injected i.p. for 3 h before fragmentation; 4 h after incubation
Procedure: as §1, §2

[1] = pretreatment for 3 h, grafting 5 days

Sequence of PTEN (P60484 whole entry, the tested form may be a part): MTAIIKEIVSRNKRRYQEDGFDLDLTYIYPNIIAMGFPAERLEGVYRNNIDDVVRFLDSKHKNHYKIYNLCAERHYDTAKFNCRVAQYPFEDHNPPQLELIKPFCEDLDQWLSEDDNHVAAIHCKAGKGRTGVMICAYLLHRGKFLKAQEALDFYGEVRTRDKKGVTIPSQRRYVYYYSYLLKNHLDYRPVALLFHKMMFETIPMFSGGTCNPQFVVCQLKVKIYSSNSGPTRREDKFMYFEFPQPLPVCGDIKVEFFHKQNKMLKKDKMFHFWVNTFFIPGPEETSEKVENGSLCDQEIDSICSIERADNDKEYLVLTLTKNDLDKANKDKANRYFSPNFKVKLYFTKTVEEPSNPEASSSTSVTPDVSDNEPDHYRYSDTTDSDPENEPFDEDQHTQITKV

In the case of CCCCCCCCCCCCC/C=C/[C@@H](O)[C@@H](N)COP(=O)(O)O [S1P, sphingosine 1-phosphate], the graft weights (ovarian grafts; 6 μM S1P for 18 h, grafting into adult ovariectomized hosts for 5 days) is given as “increases in graft weights”, the “ovarian weights in explant culture” value (ovaries from day 10 mice; 6 μM, 4 days, ovaries from day 10 mice) is given as “major increases in ovarian weights” and the “oocyte apoptosis induced by X-irradiation” value (oocytes) is given as “suppressed”.

For O=C([O-])c1ccccn1.OO.OO.[K+].[K+].[OH-].[V] [dipotassium bisperoxo(picolinato)oxovanadate (V)], the IC50 (PTEN) is given as 31 nM.

For OO.OO.[K+].[OH-].[V].c1cnc2c(c1)ccc1cccnc12 [potassium bisperoxo (1,10-phenanthroline)oxovanadate (V)], the IC50 (PTEN) is given as 38 nM.

For “dipotassium bisperoxo(5-hydroxypyridine-2-carboxyl)oxovanadate (V)”, the IC50 (PTEN) is given as 14 nM.

In the case of “potassium bisperoxo(bipyridine)oxovanadate (V)”, the IC50 (PTEN) is listed as 18 nM.

For verteporfin, the “graft weights, intact versus fragmented pairs” value (ovarian grafts; pretreatment for 3 h, fragmentation, grafting into FSH-treated hosts for 5 days) was “no significant changes”, the antral/preovulatory follicles (ovarian grafts; [1]) was “smaller suppression” and the “fragmentation induced increases in late secondary follicles” value (ovarian grafts; [1]) was “prevented”. For the same molecule, the “total follicles in grafts” value (ovarian grafts; [1]) was “no loss of total follicles”, the “fragmentation-induced increases in CCN2 transcripts” value (CCN2 transcripts) was “blocked” and the “transcripts for anti-Müllerian hormone (AMH)” value (AMH transcripts) was “without affecting”.

B1: CCN6: CCN growth factor protein (protein, UniProt O95389 24-354, looked up)
Cellular communication …: TGPLDTTPEGRPGEVSDAPQRKQFCHWPCKCPQQKPRCPPGVSLVRDGCGCCKICAKQPGEICNEADLCDPHKGLYCDYSVDRPRYETGVCAYLVAVGCEFNQVHYHNGQVFQPNPLFSCLCVSGAIGCTPLFIPKLAGSHCSGAKGGKKSDQSNCSLEPLLQQLSTSYKTMPAYRNLPLIWKKKCLVQATKWTPCSRTCGMGISNRVTNENSNCEMRKEKRLCYIQPCDSNILKTIKIPKGKTCQPTFQLSKAEKFVFSGCSSTQSYKPTFCGICLDKRCCIPNKSKMITIQFDCPNEGSFKWKMLWITSCVCQRNCREPGDIFSELKIL
For B1, the ovarian explant weights (ovaries from day 10 mice) was “dose-dependent increases”.

B2: CCN5: CCN growth factor protein (protein, UniProt O76076 24-250, looked up)
CCN family member 5: QLCPTPCTCPWPPPRCPLGVPLVLDGCGCCRVCARRLGEPCDQLHVCDASQGLVCQPGAGPGGRGALCLLAEDDSSCEVNGRLYREGETFQPHCSIRCRCEDGGFTCVPLCSEDVRLPSWDCPHPRRVEVLGKCCPEWVCGQGGGLGTQPLPAQGPQFSGLVSSLPPGVPCPEWSTAWGPCSTTCGLGMATRVSNQNRFCRLETQRRLCLSRPCPPSRGRSPQNSAF
For B2, the ovarian explant weights (ovaries from day 10 mice) was “dose-dependent increases”.

B3: CCN2: CCN growth factor protein, acts downstream of disrupted Hippo signaling (protein, UniProt P29279 27-349, looked up)
CCN family member 2: QNCSGPCRCPDEPAPRCPAGVSLVLDGCGCCRVCAKQLGELCTERDPCDPHKGLFCHFGSPANRKIGVCTAKDGAPCIFGGTVYRSGESFQSSCKYQCTCLDGAVGCMPLCSMDVRLPSPDCPFPRRVKLPGKCCEEWVCDEPKDQTVVGPALAAYRLEDTFGPDPTMIRANCLVQTTEWSACSKTCGMGISTRVTNDNASCRLEKQSRLCMVRPCEADLEENIKKGKKCIRTPKISKPIKFELSGCTSMKTYRAKFCGVCTDGRCCTPHRTTTLPVEFKCPDGEVMKKNMMFIKTCACHYNCPGDNDIFESLYYRKMYGDMA
With B3 the ovarian explant weights (ovaries from day 10 mice) was “dose-dependent increases”.

B4: CCN3: CCN growth factor protein (protein, UniProt P48745 32-357, looked up)
CCN family member 3: TQRCPPQCPGRCPATPPTCAPGVRAVLDGCSCCLVCARQRGESCSDLEPCDESSGLYCDRSADPSNQTGICTAVEGDNCVFDGVIYRSGEKFQPSCKFQCTCRDGQIGCVPRCQLDVLLPEPNCPAPRKVEVPGECCEKWICGPDEEDSLGGLTLAAYRPEATLGVEVSDSSVNCIEQTTEWTACSKSCGMGFSTRVTNRNRQCEMLKQTRLCMVRPCEQEPEQPTDKKGKKCLRTKKSLKAIHLQFKNCTSLHTYKPRFCGVCSDGRCCTPHNTKTIQAEFQCSPGQIVKKPVMVIGTCTCHTNCPKNNEAFLQELELKTTRGKM
In the case of B4, the ovarian explant weights (ovaries from day 10 mice) is reported as “dose-dependent increases”.
